Measured values from patent publication US20260234147A1 (priority 2023, published 2026).
Read-outs that look alike come from different tables or passages of the source.

Assays:
α2C adrenergic receptor = molecular target: T1, α2C adrenergic receptor (Homo sapiens, UniProt P18825); experiment: Radioligand binding assay (Eurofins Cerep), [3H]RX 821002 displacement
T1 construct: Eurofins Cerep (contract screening)
T1 sequence (P18825 1-462): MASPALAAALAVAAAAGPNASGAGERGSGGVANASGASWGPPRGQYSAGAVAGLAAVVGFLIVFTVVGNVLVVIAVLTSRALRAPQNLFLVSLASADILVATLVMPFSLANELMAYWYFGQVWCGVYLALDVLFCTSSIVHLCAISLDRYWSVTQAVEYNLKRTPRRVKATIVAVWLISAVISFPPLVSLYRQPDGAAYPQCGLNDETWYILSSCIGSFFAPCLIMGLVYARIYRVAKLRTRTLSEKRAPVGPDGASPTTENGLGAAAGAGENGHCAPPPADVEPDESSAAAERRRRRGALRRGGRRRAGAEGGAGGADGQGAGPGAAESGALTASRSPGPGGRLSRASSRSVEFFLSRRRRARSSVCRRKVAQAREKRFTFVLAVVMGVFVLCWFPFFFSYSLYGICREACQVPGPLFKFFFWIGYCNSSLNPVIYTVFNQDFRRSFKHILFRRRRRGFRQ

hMOR = hMOR (Homo sapiens, UniProt P35372); experiment: Radioligand binding assay (Eurofins Cerep), [3H]DAMGO displacement; details: for Ki: 3 independent experiments
Sequence of hMOR (P35372 whole entry): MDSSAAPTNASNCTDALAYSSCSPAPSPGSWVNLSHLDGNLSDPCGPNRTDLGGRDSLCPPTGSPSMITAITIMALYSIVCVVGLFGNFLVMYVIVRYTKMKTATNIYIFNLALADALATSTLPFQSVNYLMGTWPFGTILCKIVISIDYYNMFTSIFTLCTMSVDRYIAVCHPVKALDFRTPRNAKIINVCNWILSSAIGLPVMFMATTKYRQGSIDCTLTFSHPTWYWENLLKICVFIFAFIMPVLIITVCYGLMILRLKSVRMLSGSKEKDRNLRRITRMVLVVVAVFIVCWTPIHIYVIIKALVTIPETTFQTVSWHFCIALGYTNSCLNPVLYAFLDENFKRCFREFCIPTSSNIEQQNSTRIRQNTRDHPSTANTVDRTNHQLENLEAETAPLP

α2A adrenergic receptor = molecular target: T2, α2A adrenergic receptor (Homo sapiens, UniProt P08913); experiment: Radioligand binding assay (Eurofins Cerep), [3H]RX 821002 displacement
T2 construct: Eurofins Cerep (contract screening)
T2 sequence (P08913 1-465): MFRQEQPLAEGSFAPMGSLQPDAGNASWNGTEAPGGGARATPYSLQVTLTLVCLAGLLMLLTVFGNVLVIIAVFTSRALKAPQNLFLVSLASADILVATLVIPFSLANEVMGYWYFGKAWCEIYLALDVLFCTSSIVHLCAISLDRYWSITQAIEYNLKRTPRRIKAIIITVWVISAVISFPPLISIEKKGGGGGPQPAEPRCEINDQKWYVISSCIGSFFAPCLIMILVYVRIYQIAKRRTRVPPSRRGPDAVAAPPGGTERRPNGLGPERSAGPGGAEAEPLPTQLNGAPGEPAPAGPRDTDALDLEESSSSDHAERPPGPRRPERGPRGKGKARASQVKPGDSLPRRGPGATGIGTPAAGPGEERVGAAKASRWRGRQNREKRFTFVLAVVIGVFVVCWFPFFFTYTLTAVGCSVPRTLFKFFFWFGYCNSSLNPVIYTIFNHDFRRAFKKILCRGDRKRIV

hKOR = hKOR (Homo sapiens, UniProt P41145); experiment: Radioligand binding assay (Eurofins Cerep), [3H]U69,593 displacement
Sequence of hKOR (P41145 whole entry): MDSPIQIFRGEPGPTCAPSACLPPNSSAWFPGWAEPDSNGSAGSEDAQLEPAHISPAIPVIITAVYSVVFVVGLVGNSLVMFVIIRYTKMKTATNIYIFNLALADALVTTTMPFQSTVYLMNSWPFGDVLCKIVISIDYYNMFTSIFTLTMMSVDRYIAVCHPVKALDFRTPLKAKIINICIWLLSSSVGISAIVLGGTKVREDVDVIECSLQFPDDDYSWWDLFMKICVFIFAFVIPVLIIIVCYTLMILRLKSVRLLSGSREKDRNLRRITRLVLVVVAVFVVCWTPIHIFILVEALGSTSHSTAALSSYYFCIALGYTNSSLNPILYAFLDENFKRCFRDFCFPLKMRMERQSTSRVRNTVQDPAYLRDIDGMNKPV

hDOR = hDOR (Homo sapiens, UniProt P41143); experiment: Radioligand binding assay (Eurofins Cerep), [3H]DADLE displacement
Sequence of hDOR (P41143 whole entry): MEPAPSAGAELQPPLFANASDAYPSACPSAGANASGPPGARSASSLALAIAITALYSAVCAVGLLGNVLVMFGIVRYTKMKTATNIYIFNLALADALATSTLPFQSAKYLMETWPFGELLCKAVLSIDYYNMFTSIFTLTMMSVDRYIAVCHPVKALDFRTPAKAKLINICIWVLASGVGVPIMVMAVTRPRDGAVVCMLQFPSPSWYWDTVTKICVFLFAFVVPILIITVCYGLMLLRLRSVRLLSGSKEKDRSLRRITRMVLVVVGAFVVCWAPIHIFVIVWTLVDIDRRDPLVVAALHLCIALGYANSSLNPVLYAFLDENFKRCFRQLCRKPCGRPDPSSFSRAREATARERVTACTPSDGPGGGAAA

[1] = Table B1, mean ± SEM, 3 independent experiments, read-out: Alpha2C Ki ± SEM
[2] = Table B1, mean ± SEM, read-out: MOR Ki ± SEM
[3] = Alpha2A Ki ± SEM (nM), Table B1, mean ± SEM, 3 independent experiments
[4] = Table 3-1, 3 independent experiments, read-out: Ki (nM ± SEM) KOR
[5] = Table 3-2, 3 independent experiments, read-out: Ki (nM ± SEM) KOR
[6] = Table 3-3, 3 independent experiments, read-out: Ki (nM ± SEM) KOR
[7] = Table 3-5, 3 independent experiments, read-out: Ki (nM ± SEM) KOR
[8] = Table 3-6, 3 independent experiments, read-out: Ki (nM ± SEM) KOR
[9] = Table 3-1, 3 independent experiments, read-out: Ki (nM ± SEM) DOR
[10] = Table 3-2, 3 independent experiments, read-out: Ki (nM ± SEM) DOR
[11] = Table 3-3, 3 independent experiments, read-out: Ki (nM ± SEM) DOR
[12] = Table 3-5, 3 independent experiments, read-out: Ki (nM ± SEM) DOR
[13] = Table 3-6, 3 independent experiments, read-out: Ki (nM ± SEM) DOR
[14] = Ki (nM ± SEM) a2C-AR, Table 3-1, 3 independent experiments
[15] = Ki (nM ± SEM) a2C-AR, Table 3-2, 3 independent experiments
[16] = Ki (nM ± SEM) a2C-AR, Table 3-5, 3 independent experiments
[17] = Ki (nM ± SEM) a2C-AR, Table 3-6, 3 independent experiments
[18] = Table 3-1, read-out: Ki (nM ± SEM) MOR
[19] = Table 3-2, read-out: Ki (nM ± SEM) MOR
[20] = Table 3-3, read-out: Ki (nM ± SEM) MOR
[21] = Table 3-5, read-out: Ki (nM ± SEM) MOR
[22] = Table 3-6, read-out: Ki (nM ± SEM) MOR
[23] = Ki (nM ± SEM) a2A-AR, Table 3-1, 3 independent experiments
[24] = Ki (nM ± SEM) a2A-AR, Table 3-2, 3 independent experiments
[25] = Ki (nM ± SEM) a2A-AR, Table 3-3, 3 independent experiments
[26] = Ki (nM ± SEM) a2A-AR, Table 3-6, 3 independent experiments
[27] = Ki (nM ± SEM) a2A-ar, Table 3-5, 3 independent experiments

## COC(=O)C=C1CCN2CCC(O)(c3ccccc3OC)CC2C1 (single isomer, unassigned) [SG-01-005A]
α2C adrenergic receptor; [1]
  Ki: 489 ± 83.4 nM
hMOR; [2]
  Ki: > 10000 nM
α2A adrenergic receptor; [3]
  Ki: 1000 ± 254 nM

## COC(=O)C=C1CCN2CCC(O)(c3ccccc3OC)CC2C1 (single isomer, unassigned) [SG-01-005B]
α2C adrenergic receptor; Alpha2C Ki ± SEM (nM), Table B1, mean ± SEM, 3 independent experiments
  Ki: 46.7 ± 4.04 nM
hMOR; [2]
  Ki: > 10000 nM
α2A adrenergic receptor; [3]
  Ki: 110 ± 8 nM

## CC[C@@H]1CN2CC[C@@]3(O)C(=Nc4cccc(OC)c43)[C@@H]2C[C@@H]1/C(=C\OC)C(=O)OC [7-Hydroxy Mitragynine, reference compound]
hKOR; Table A1, data summary #1, read-out: KOR Ki ± SEM
  Ki: 450 nM
hKOR; Table A4, data summary #2, read-out: KOR Ki ± SEM
  Ki: 450 nM
hDOR; Table A1, data summary #1, read-out: DOR Ki ± SEM
  Ki: 243 nM
hDOR; Table A4, data summary #2, read-out: DOR Ki ± SEM
  Ki: 243 nM
α2C adrenergic receptor; Table A1, data summary #1, read-out: Alpha2C Ki ± SEM
  Ki: > 10000 nM
α2A adrenergic receptor; Table A1, data summary #1, read-out: Alpha2A Ki ± SEM
  Ki: > 10000 nM
α2A adrenergic receptor; Table A4, data summary #2, read-out: Alpha2A Ki ± SEM
  Ki: > 10000 nM

## COC(=O)CC1CCN(CCc2c[nH]c3cccc(OC)c23)CC1 [Compound 3-22]
hKOR; [4]
  Ki: > 10000 nM
hKOR; [5]
  Ki: > 10000 nM
hKOR; [6]
  Ki: > 10000 nM
hKOR; [7]
  Ki: > 10000 nM
hKOR; [8]
  Ki: > 10000 nM
hDOR; [9]
  Ki: > 10000 nM
hDOR; [10]
  Ki: > 10000 nM
hDOR; [11]
  Ki: > 10000 nM
hDOR; [12]
  Ki: > 10000 nM
hDOR; [13]
  Ki: > 10000 nM
α2C adrenergic receptor; [14]
  Ki: 69.3 ± 4.2 nM
α2C adrenergic receptor; [15]
  Ki: 69.3 ± 4.16 nM
α2C adrenergic receptor; Ki (nM ± SEM) a2C-AR, Table 3-3, 3 independent experiments
  Ki: 69.3 ± 4.16 nM
α2C adrenergic receptor; [16]
  Ki: 69.3 ± 4.16 nM
α2C adrenergic receptor; [17]
  Ki: 69.3 ± 4.16 nM
hMOR; [18]
  Ki: > 10000 nM
hMOR; [19]
  Ki: > 10000 nM
hMOR; [20]
  Ki: > 10000 nM
hMOR; [21]
  Ki: > 10000 nM
hMOR; [22]
  Ki: > 10000 nM
α2A adrenergic receptor; [23]
  Ki: 229 ± 24.9 nM
α2A adrenergic receptor; [24]
  Ki: 229 ± 24.9 nM
α2A adrenergic receptor; [25]
  Ki: 229 ± 24.9 nM
α2A adrenergic receptor; [26]
  Ki: 229 ± 24.9 nM
α2A adrenergic receptor; [27]
  Ki: 229 ± 24.9 nM

## CO/C=C(/C(=O)OC)C1CCN(CCc2c[nH]c3ccccc23)CC1 [Compound 3-23]
hKOR; [4]
  Ki: 3670 ± 1260 nM
hKOR; [5]
  Ki: 3670 ± 1260 nM
hKOR; Table 3-4, 3 independent experiments, read-out: Ki (nM ± SEM) KOR
  Ki: 3670 ± 1260 nM
hKOR; [7]
  Ki: 3670 ± 1260 nM
hKOR; [8]
  Ki: 3670 ± 1260 nM
hDOR; [9]
  Ki: > 10000 nM
hDOR; [10]
  Ki: > 10000 nM
hDOR; Table 3-4, 3 independent experiments, read-out: Ki (nM ± SEM) DOR
  Ki: > 10000 nM
hDOR; [12]
  Ki: > 10000 nM
hDOR; [13]
  Ki: > 10000 nM
α2C adrenergic receptor; [14]
  Ki: 830 ± 268 nM
α2C adrenergic receptor; [15]
  Ki: 830 ± 268 nM
α2C adrenergic receptor; Ki (nM ± SEM) a2C-AR, Table 3-4, 3 independent experiments
  Ki: 830 ± 268 nM
α2C adrenergic receptor; [16]
  Ki: 830 ± 268 nM
α2C adrenergic receptor; [17]
  Ki: 135 ± 12.5 nM
hMOR; Table 3-1
  SR: Selectivity Ratio (KiMOR/Kiα2A): 0.61
hMOR; [18]
  Ki: 451 ± 108 nM
hMOR; Table 3-2
  SR: Selectivity Ratio (KiMOR/Kiα2A): 0.61
hMOR; [19]
  Ki: 451 ± 108 nM
hMOR; Table 3-4
  SR: Selectivity Ratio (KiMOR/Kiα2A): 0.61
hMOR; Table 3-4, read-out: Ki (nM ± SEM) MOR
  Ki: 451 ± 108 nM
hMOR; Table 3-5
  SR: Selectivity Ratio (KiMOR/Kiα2A): 0.61
hMOR; [21]
  Ki: 451 ± 108 nM
hMOR; Table 3-6
  SR: Selectivity Ratio (KiMOR/Kiα2A): 0.61
hMOR; [22]
  Ki: 451 ± 108 nM
α2A adrenergic receptor; [23]
  Ki: 741 ± 19.3 nM
α2A adrenergic receptor; [24]
  Ki: 741 ± 19.3 nM
α2A adrenergic receptor; Ki (nM ± SEM) a2A-AR, Table 3-4, 3 independent experiments
  Ki: 741 ± 19.3 nM
α2A adrenergic receptor; [26]
  Ki: 741 ± 19.3 nM
α2A adrenergic receptor; [27]
  Ki: 741 ± 19.3 nM

## COC(=O)CC1CCN(CCc2c[nH]c3c(OC)cccc23)CC1 [Compound 3-42]
hKOR; [5]
  Ki: > 10000 nM
hKOR; [6]
  Ki: > 10000 nM
hDOR; [10]
  Ki: > 10000 nM
hDOR; [11]
  Ki: > 10000 nM
α2C adrenergic receptor; [15]
  Ki: 830 ± 268 nM
hMOR; [19]
  Ki: > 10000 nM
hMOR; [20]
  Ki: > 10000 nM
α2A adrenergic receptor; [24]
  Ki: 1300 ± 129 nM
α2A adrenergic receptor; [25]
  Ki: 1300 ± 129 nM

## C#CCCN1CCC(O)(c2ccccc2OC)CC1 [SG-01-003, 1-(but-3-ynyl)-4-(2-methoxyphenyl)piperidin-4-ol]
α2C adrenergic receptor; [1]
  Ki: > 10000 nM
hMOR; [2]
  Ki: > 10000 nM
hMOR; binding screen of intermediates
  selectivity between MOR and α 2A: not selective towards both receptors
α2A adrenergic receptor; [3]
  Ki: 5750 ± 1170 nM

## COC(=O)C=C1CCN2CCC(O)(c3ccccc3OC)CC2C1 (stereo not drawn) [SG-01-005, Methyl 2-(8-hydroxy-8-(2-methoxyphenyl)dihydro-1H-quinolizin-2(6H,7H,8H,9H, 9aH)-ylidene)acetate]
α2C adrenergic receptor; [1]
  Ki: 129 ± 37.9 nM
hMOR; [2]
  Ki: > 10000 nM
α2A adrenergic receptor; [3]
  Ki: 264 ± 16 nM
